Experimental findings from patent publication US20080051413A1, “Nitrophenylpiperazine derivative of xanthine which relaxes tracheal airway and increases respiratory performance” (KAOHSIUNG MEDICAL UNIVERSITY, priority 2006, published 2008) are described below.

The structures appear in SMILES notation.

For assay [1], the system named is PDE4 purified from human U-937 pronocytic cells. Nature of the assay: Phosphodiesterase activity, PDE4. The class given is biochemical. The settings on record: 10 _M compound, n = 3. The procedure:
Phosphodiesterase Activity: PDE activity was determined by the method of Nicholson et al. (Nicholson C D, Challiss R A, and Shahid M (1991) Differential modulation of tissue function and therapeutic potential of selective inhibitors of cyclic nucleotide phosphodiesterase isonzymes. Trends Pharmaclo Sci 12:19-27). PDE3 and PDE5 purified from human platelets and PDE4 purified from human U-937 pronocytic cells were used. Test compound (10 _M) or vehicle was incubated with 0.2 _g of enzyme and 1 _M cAMP containing 0.01 _M [^3H]cAMP in Tris buffer, pH 7.5, for 20 min at 25_. The reaction was terminated by boiling for 2 min, and the resulting […] was converted to adenosine by the addition of 10 mg/ml snake venom nucleotidase, which is followed by a further incubation at 37_for 10 min. Unhydrolyzed cAMP was bound to AG1-X2 resin, and the remaining [^3H]adenosine in the aqueous phase was quantitated by scintillation counting.

The subject of assay [2] is carbachol (1 _M)-precontracted guinea pig trachea. As to the kind of experiment: Isolated tracheal preparation, measurement of tension. The procedure:
Isolated Tracheal preparation and Measurement of Tension: Guinea pigs (350-450 g) were anesthetized with pentobarbital (70 mg/kg) i.p. and killed by a sharp blow on the neck, followed by cervical dislocation. The trachea was excised, cleaned of adhering fat and connective tissue, cut transversely into four to five rings, and then opened by cutting longitudinally through the cartilage rings diametrically opposite the tracheal smooth muscle (Hwang T L, Wu C C, and Teng C M (1999) YC-1 potentiates nitric oxide-induced relaxation in guinea-pig trachea. Br J Pharmacol 128:577-584). Then trachea rings were suspended in a 10-ml organ bath containing Krebs' solution (118 mM NaCl, 25 mM NaHCO3, 4.7 mM KCl, 1.2 mM KH2PO4, 1.2 mM MgSO4, 11 mM glucose, and 2.5 mM CaCl2, pH 7.3-7.4) maintained at 37_and aerated with 95% O2 and 5% CO2. Each tracheal tissue sample was subjected to 2 g of initial basal tension. All experiments were carried out in the presence of indomethacin (3 _M) and propranolol (1 _M) to prevent the formation of prostanoids and to inhibit _-adrenergic responses, respectively. Isometric tension was recorded with a force displacement transducer (model FT03; Grass Instruments, Quincy, M A). Before the start of measurements, all preparations were allowed to equilibrate with frequent washing for 1 h. They were first contracted with carbachol (1 _M) to determine the contractility of preparations. This was also done at the end of each experiment. The preparations were then washed and allowed to equilibrate with Krebs' solution for 50 min before being contracted a second time with carbachol (1 _M). When stable constriction to carbachol was reached, concentration responses of KMUP-3 (10, 30, and 100 _M) were obtained. Data were expressed as percentages of the maximum contractile response to carbachol (1 _M).
In experiments to examine the role of epithelium in tracheal relaxation, the epithelial cells were removed mechanically by rubbing the internal surface of trachea with a fine silver wire, and the removal of the epithelial layer was confirmed by histological examination as previously described (Wu et al., 2004).
To examine the possible mechanism of tracheal relaxant effects of KMUP-3, the tracheal strips were pretreated with a K^+ channel blocker, tetraethylammonium (TEA; 10 mM); a KATP channel blocker, glibenclamide (1-M); voltage-dependent K^+ channel blocker, 4-aminopyridine (4-AP, 100 _M); Ca^2+-dependent K^+ channel blockers, apamin (1 _M) and charybdotoxin (ChTX; 0.1 _M); a sGC inhibitor, 1H-[1,2,4]oxadiazolo[4,3-a]quinoxalin-1-one (ODQ; 1 _M); an NOS inhibitor, N—nitro-L-arginine methyl ester (L-NAME; 100 _M); and an adenylate cyclase (AC) inhibitor, SQ 22536 (100 _M) for 30 min prior to the addition of KMUP-3 (10, 30, and 100 _M). In the other experiments, TSMs were precontracted with 60 mM KCl to examine the relaxation achieved by KMUP-3. The KCl solution was prepared by substituting NaCl with KCl (60 mM) in an equimolar amount.

The target of assay [3] is T1, PDE5 purified from human platelets (Homo sapiens, UniProt O76074).
T1 construct: PDE3 and PDE5 purified from human platelets; from tissue; host or cells: human platelets
As to the kind of experiment: Phosphodiesterase activity, PDE5. The format is biochemical. The note with it: 10 _M compound, n = 3.
Procedure: The reaction was terminated by boiling for 2 min, and the resulting GMP was converted to adenosine by the addition of 10 mg/ml snake venom nucleotidase, which was followed by a further incubation at 37_ for 10 min. Unhydrolyzed cGMP was bound to AG1-X2 resin, and the remaining [^3H]guanosine in the aqueous phase was quantitated by scintillation counting.

Another assay has as its system guinea pig TSM strips. Nature of the assay: Determination of nitrite in TSM strips. The settings on record: 100 _M, 30 min, EP+ TSM, basal 0.8±0.1 _M/mg, n=3. The procedure: Determination of Nitrite: To measure concentrations of nitrite (NO2^−) in guinea pig TSM strips, TSM strips were pretreated with KMUP-3 (100 _M) in Krebs' solution for 30 min. Then guinea pig TSM strips (2 ml/g tissue of methanol) were ultrasonically homogenized in an ice bath and then centrifuged at 10,000 g for 10 min at 4_. Briefly, harvestable supernatants were reacted with an equal volume of Griess reagents (1% […]/0.1% N-L-naphthylethylenediamine dihydrochloride/5% H3PO4) for 10 min to form a colored azo dye. The absorbance at 540 nm was detected by a flow-through visible spectrophotometer, and an equal volume of methanol was used for blank control.

For `Cn1c(=O)c2c(ncn2CCN2CCN(c3ccc([N+](=O)[O-])cc3)CC2)n(C)c1=O` [KMUP-3], the “PDE4 Inhibition” value in assay [1] turned out to be 48 ± 2.1 %. Moreover, the “relaxation response after epithelium denudation (FIG. 3(A))” value in assay [2] (10, 30, 100 _M, EP− versus EP+) is recorded as “significant decrease in the relaxation response”. Moreover, the “relaxation, concentration response” value in assay [2] (10, 30, 100 _M, carbachol- or high-K+-contracted EP+ TSM, also epithelium-denuded) is given as “concentration-dependent relaxation”. The “relaxation of TSM strips” value in assay [2] (100 _M, carbachol (1 _M)-precontracted) is reported as “up to 130%”. In addition, the “relaxation in epithelium-intact trachea (FIG. 3(B))” value in assay [2] (100 _M, carbachol (1 _M)-precontracted, EP+) was “cause relaxations”. For the same compound, in assay [2] (30 min pretreatment, EP+ TSM), the “relaxation in presence of ODQ (1 _M), L-NAME (100 _M) or SQ 22536 (100 _M) (FIG. 5)” value is on record as “attenuated”. The “relaxation against carbachol-induced contractions in presence of K+ channel blockers (FIGS. 4(A)-4(E))” value in assay [2] (pretreatment with TEA, glibenclamide, 4-AP, apamin or ChTX, EP+) is reported as “inhibited”. The “PDE5 Inhibition” value in assay [3] was determined as 48 ± 1.9 %. Also, in the assay on guinea pig TSM strips, the “NO2— release in comparison with the basal level” value came out at 160±15%.
